Reference: ChEMBL document CHEMBL1143033, “Nodulisporol and Nodulisporone, novel specific inhibitors of human DNA polymerase lambda from a fungus, Nodulisporium sp” (Bioorg Med Chem, 2007)

Legend:
[1] = biological target: T1, DNA polymerase delta catalytic subunit (Homo sapiens, UniProt P28340); test: Inhibition of human DNA polymerase delta
T1 sequence (P28340 whole entry): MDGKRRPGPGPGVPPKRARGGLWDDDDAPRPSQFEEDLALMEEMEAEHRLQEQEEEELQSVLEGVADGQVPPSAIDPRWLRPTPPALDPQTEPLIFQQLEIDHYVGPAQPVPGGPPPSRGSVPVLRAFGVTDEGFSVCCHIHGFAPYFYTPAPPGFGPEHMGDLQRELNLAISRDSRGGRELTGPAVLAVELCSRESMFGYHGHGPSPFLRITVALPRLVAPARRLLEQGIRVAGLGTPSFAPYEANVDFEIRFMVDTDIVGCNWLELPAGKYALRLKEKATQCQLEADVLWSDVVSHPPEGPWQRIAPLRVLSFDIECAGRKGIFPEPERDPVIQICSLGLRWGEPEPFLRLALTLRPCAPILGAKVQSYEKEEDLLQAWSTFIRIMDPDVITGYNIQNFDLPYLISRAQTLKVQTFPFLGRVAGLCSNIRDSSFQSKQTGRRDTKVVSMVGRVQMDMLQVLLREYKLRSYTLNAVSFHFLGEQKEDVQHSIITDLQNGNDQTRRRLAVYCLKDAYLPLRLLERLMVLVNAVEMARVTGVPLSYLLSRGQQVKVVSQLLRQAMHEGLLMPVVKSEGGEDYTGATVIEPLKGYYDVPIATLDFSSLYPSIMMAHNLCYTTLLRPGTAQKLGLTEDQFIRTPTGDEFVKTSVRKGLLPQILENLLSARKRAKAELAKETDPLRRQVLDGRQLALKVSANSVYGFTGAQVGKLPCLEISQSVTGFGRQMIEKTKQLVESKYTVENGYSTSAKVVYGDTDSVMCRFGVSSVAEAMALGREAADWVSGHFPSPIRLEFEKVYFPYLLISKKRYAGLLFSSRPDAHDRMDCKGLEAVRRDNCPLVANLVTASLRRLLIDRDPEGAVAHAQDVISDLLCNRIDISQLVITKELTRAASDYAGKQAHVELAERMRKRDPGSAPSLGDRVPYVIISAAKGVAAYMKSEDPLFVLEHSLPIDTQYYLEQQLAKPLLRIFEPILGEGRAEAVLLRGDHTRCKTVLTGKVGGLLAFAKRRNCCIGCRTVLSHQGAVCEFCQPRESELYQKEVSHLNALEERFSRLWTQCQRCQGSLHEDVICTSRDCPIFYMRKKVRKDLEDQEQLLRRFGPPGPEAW

[2] = Inhibition of calf DNA polymerase alpha; parameters: species or system Bos taurus
[3] = biological target: DNA polymerase beta (Rattus norvegicus, UniProt P06766); test: Inhibition of rat DNA polymerase beta
[4] = Inhibition of human DNA polymerase gamma
[5] = biological target: T2, DNA polymerase lambda (Homo sapiens, UniProt Q9UGP5); test: Inhibition of human DNA polymerase lambda
T2 sequence (Q9UGP5 whole entry): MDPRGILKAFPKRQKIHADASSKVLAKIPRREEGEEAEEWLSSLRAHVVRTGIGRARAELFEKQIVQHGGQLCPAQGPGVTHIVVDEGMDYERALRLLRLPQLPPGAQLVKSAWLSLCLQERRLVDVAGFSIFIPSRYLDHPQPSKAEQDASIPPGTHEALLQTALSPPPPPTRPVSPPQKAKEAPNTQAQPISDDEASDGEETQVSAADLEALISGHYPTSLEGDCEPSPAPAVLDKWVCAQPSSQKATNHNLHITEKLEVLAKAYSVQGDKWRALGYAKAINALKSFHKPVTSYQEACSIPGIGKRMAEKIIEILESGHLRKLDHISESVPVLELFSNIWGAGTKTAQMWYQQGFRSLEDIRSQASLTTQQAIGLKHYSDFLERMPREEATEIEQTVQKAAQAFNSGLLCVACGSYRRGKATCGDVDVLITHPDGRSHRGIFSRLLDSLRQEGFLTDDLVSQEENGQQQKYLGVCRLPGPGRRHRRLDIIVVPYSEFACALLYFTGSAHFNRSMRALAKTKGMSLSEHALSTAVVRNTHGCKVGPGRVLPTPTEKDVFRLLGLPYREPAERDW

[6] = Inhibition of human DNA polymerase epsilon

SMILES: COc1ccc(C)c2c1C(=O)OC(C)C2 (configuration not stated)
- IC50 [1]: > 1000 µM
- IC50 [2]: > 1000 µM
- IC50 [3]: > 1000 µM
- IC50 [4]: > 1000 µM
- IC50 [5]: 49 µM
- IC50 [6]: > 1000 µM

SMILES: COc1cc(O)c2c(=O)c(CO)c(C)oc2c1
- IC50 [1]: > 1000 µM
- IC50 [2]: > 1000 µM
- IC50 [3]: > 1000 µM
- IC50 [4]: > 1000 µM
- IC50 [5]: 454 µM
- IC50 [6]: > 1000 µM

SMILES: CC1Cc2c(C=O)ccc(O)c2C(=O)O1 (configuration not stated)
- IC50 [1]: > 1000 µM
- IC50 [2]: > 1000 µM
- IC50 [3]: > 1000 µM
- IC50 [4]: > 1000 µM
- IC50 [5]: 275 µM
- IC50 [6]: > 1000 µM

SMILES: COc1cccc2c1C(O)CCC2O (configuration not stated) [NODULISPOROL]
- IC50 [1]: > 1000 µM
- IC50 [2]: > 1000 µM
- IC50 [3]: > 1000 µM
- IC50 [4]: > 1000 µM
- IC50 [5]: 168 µM
- IC50 [6]: > 1000 µM

SMILES: CC1Cc2cccc(O)c2C(=O)O1 (configuration not stated) [MELLEIN]
- IC50 [1]: > 1000 µM
- IC50 [2]: > 1000 µM
- IC50 [3]: > 1000 µM
- IC50 [4]: > 1000 µM
- IC50 [5]: 316 µM
- IC50 [6]: > 1000 µM

SMILES: COc1cccc2c1C(=O)CCC2O (configuration not stated) [NODULISPORONE]
- IC50 [1]: > 1000 µM
- IC50 [2]: > 1000 µM
- IC50 [3]: > 1000 µM
- IC50 [4]: > 1000 µM
- IC50 [5]: 82 µM
- IC50 [6]: > 1000 µM

SMILES: COc1cccc2c1C(=O)OC(C)C2 (configuration not stated)
- IC50 [1]: > 1000 µM
- IC50 [2]: > 1000 µM
- IC50 [3]: > 1000 µM
- IC50 [4]: > 1000 µM
- IC50 [5]: 180 µM
- IC50 [6]: > 1000 µM
